Laboratory results from patent publication US11104664B2, “4,5,6-trisubstituted indazole derivatives, and preparation method and pharmaceutical use thereof” (SHANGHAI HAIYAN PHARMACEUTICAL TECHNOLOGY CO., LTD., priority 2016, dated 2021).

Key:
[1] = molecular target: Recombinant PRC2 (EZH2-Y641F) (Homo sapiens (Human), UniProt Q15910, Y641F); assay: In vitro methyltransferase activity assay (LANCE Ultra); format: biochemical; conditions: for IC50: 2.5 μM SAM/250 nM H3(1-50)K27me1, 3 hours, room temperature
Sequence of Recombinant PRC2 (EZH2-Y641F) (Q15910 whole entry Y641F): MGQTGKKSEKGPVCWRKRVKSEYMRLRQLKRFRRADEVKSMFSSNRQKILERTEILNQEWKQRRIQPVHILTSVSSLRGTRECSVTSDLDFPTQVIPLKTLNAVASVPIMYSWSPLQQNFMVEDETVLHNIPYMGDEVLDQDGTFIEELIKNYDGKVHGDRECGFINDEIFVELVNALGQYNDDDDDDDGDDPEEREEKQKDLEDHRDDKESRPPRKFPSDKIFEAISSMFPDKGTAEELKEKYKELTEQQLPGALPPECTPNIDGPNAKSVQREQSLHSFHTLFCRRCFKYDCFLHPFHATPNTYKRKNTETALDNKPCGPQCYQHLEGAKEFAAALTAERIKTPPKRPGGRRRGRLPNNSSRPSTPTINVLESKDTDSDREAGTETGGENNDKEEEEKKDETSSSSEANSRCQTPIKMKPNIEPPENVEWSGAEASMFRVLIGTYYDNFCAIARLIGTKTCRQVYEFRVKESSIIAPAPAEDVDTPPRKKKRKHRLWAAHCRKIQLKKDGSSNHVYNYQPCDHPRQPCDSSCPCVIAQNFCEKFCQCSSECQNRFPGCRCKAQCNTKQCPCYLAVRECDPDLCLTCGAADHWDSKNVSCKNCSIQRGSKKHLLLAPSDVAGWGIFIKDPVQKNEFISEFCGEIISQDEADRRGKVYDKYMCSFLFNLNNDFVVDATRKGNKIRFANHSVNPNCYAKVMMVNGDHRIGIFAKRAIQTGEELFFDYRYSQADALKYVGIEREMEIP
Sequence of Recombinant PRC2 (EZH2-Y641F) (O75530 whole entry partner): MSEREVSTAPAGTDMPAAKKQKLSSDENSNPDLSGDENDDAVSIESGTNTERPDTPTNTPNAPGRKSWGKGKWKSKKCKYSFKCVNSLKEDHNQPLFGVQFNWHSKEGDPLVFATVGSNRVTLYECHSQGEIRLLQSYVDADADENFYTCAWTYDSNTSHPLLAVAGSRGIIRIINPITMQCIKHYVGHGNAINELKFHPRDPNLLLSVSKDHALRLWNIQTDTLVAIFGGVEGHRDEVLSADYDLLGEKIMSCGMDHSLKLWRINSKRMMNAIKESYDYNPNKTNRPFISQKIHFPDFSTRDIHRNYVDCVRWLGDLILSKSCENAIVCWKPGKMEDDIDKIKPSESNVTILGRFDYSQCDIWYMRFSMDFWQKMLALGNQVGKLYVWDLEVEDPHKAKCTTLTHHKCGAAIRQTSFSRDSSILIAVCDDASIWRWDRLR
Sequence of Recombinant PRC2 (EZH2-Y641F) (Q15022 whole entry partner): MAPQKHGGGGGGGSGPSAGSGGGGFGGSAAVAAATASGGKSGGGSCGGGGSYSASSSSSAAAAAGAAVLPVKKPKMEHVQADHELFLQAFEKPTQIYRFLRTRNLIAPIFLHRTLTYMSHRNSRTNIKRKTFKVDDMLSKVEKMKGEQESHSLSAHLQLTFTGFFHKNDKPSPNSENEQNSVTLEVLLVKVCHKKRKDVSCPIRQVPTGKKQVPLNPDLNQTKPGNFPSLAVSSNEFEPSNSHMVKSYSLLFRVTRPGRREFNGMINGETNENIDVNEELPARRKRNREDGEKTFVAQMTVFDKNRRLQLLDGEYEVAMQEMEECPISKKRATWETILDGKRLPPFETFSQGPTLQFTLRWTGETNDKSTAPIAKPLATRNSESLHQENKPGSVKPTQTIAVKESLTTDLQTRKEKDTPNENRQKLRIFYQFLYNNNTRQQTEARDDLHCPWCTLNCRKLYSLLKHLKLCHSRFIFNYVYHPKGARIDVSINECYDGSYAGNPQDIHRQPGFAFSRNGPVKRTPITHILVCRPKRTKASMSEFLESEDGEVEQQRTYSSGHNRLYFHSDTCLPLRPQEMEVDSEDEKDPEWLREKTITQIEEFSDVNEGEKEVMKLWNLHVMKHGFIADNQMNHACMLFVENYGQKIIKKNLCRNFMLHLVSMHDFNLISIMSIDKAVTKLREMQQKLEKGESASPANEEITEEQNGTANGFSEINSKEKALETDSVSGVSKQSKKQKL
Sequence of Recombinant PRC2 (EZH2-Y641F) (Q09028 whole entry partner): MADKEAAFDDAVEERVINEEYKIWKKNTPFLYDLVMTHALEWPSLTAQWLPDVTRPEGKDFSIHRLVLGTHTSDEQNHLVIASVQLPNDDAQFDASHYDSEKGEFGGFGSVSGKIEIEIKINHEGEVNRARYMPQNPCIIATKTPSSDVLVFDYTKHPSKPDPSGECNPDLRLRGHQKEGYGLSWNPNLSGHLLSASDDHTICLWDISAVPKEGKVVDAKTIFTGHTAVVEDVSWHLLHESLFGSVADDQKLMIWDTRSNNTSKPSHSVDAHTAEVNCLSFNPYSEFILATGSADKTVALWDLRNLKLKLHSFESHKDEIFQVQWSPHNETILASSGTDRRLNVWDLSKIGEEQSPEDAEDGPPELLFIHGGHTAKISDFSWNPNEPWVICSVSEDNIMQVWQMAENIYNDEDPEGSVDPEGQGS
Sequence of Recombinant PRC2 (EZH2-Y641F) (Q6ZN18 whole entry partner): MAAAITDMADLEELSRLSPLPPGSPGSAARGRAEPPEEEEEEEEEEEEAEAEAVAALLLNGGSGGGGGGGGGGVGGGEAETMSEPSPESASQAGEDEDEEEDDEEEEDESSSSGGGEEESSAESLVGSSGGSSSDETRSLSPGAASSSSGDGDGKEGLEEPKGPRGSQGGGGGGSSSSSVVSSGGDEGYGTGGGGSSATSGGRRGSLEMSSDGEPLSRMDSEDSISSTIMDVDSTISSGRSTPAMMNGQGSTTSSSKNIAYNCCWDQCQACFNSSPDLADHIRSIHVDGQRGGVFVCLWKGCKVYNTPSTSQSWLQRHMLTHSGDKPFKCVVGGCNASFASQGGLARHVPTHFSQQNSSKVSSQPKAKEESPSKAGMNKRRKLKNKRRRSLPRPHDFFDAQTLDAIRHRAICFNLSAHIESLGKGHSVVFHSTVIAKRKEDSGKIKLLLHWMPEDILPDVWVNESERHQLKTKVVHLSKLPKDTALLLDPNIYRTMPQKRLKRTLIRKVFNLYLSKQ
Protocol: Recombinant PRC2 (EZH2-Y641F) was purchased from Active motif, S-adenosyl-methionine (SAM) and Poly-L-lysine (PLL) were purchased from Sigma-Aldrich, and H3(1-50)K27me1 peptide was purchased from Cisbio. LANCEUltrasystem (Perkinelmer) was used for detection system. In the enzyme activity test, compounds to be tested were diluted by 8 gradient points in a ratio of 1:3, and added into each well in a reaction plate, and 100 ng recombinase was added, followed by a buffer [20 mM Tris pH8.5, 2 mM MgCl2, 0.01% Tween-20, 1 mM TCEP] containing 2.5 μM SAM/250 nM H3 (1-50)K27me1 premixtures. Enzymatic reaction thus began at room temperature. After reacted for 3 hours, a detection solution premixed with PLL, detection antibody and Ulight was added, and reacted for 1 hour at room temperature. The fluorescence value was then read on a Tecan infinite pro. IC50 was calculated by fitting in a four-factor model in the XLfit software.

[2] = tested on: Pfeiffer cells; assay: Cell proliferation assay (Cell counting kit-8, 6 days); format: cell-based; conditions: Pfeiffer (CRL-2632), 6 days culture
Protocol: The used cell lines Pfeiffer (CRL-2632), suDHL-6 (CRL-2959) and suDHL-10 (CRL-2963) were obtained from American Type Culture Collection (ATCC). All cell lines were cultured in RPMI-1640 medium (Gibco) containing 10% fetal bovine serum (Gibco). The cultured cells were harvested by centrifugation and the cell density was determined using a CounterStar cell counter. Appropriate number of cells were plated in a 96-well culture plate and incubated overnight. Compounds to be tested were diluted by 8 gradient points in a ratio of 1:3 and added into corresponding wells. After continuing to culture for 6 days, the number of viable cells was measured with Cell counting kit-8, and the absorbance value was read on Tecan infinite pro. The IC50 was calculated by fitting in a four-parameter model in the XLfit software.

| SMILES | IC50 [1] [nM] | IC50 [2] [nM] | IC50 ([2]; Homo sapiens, 144 h) [nM] | inhibitory activity against the enzyme (in words) ([1]; SAR comment on Table 1, reduced relative to comparator compounds (P-7, P-13/14)) |
| --- | --- | --- | --- | --- |
| CCc1c(C(=O)NCc2c(OC)cc(C)[nH]c2=O)cc2c(cnn2C)c1N(C)[C@H]1CC[C@H](N(C)CCOC)CC1 [P-21, 5-ethyl-4-(methyl((1R, 4R)-4-((2-methoxyethyl) (methyl)amino)cyclohexyl)amino)-N-((4-methoxy-6-methyl-2-oxo-1,2-dihydropyridin-3-yl)methyl)-1-methyl-1H-indazole-6-carboxamide] | 14 | 32 |  |  |
| CCc1c(C(=O)NCc2c(OC)cc(C)[nH]c2=O)cc2c(cnn2C)c1N(CC)C1CCC(N(C)C)CC1 (stereo not shown) [P-22, 4-((4-(dimethylamino)cyclohexyl)(ethyl)amino)-5-ethyl-N-((4-methoxy-6-methyl-2-oxo-1,2-dihydropyridin-3-yl)methyl) 1-methyl-1H-indazole-6-carboxamide] | 5 | 66 |  |  |
| CCc1c(C(=O)NCc2c(C)cc(C)[nH]c2=O)cc2c(cnn2C)c1N(CC)C1CCC(N(C)C)CC1 (stereo not shown) [P-23] | 5 |  | 25 |  |
| CCc1c(C(=O)NCc2c(C)cc(C)[nH]c2=O)cc2c(cnn2C)c1N(CC)C1CCC(N2CCOCC2)CC1 (stereo not shown) [P-24] | 9 |  | 169 |  |
| CCc1c(C(=O)NCc2c(C)cc(C)[nH]c2=O)cc2c(cnn2C)c1N(CC)C1CCC(NC(F)(F)F)CC1 (stereo not shown) [P-25] | 46 |  | 278 |  |
| CCN(c1c(C)c(C(=O)NCc2c(C)cc(C)[nH]c2=O)cc2c1cnn2C)C1CCC(CN(C)C)CC1 (stereo not shown) [P-26] | 8 |  | 48 |  |
| CCN(c1c(C#N)c(C(=O)NCc2c(C)cc(C)[nH]c2=O)cc2c1cnn2C)C1CCOCC1 [P-27] | 1750 |  | > 10000 |  |
| CCN(c1c(C2CC2)c(C(=O)NCc2c(C)cc(C)[nH]c2=O)cc2c1cnn2C)C1CCOCC1 [P-28] | 402 |  | 702 |  |
| CCc1c(C(=O)NCc2c(C)cc(C)[nH]c2=O)cc2c(cnn2C)c1N(CC)C1CCC(N2CCNCC2)CC1 (stereo not shown) [P-29] | 34 |  | 191 |  |
| CCc1c(C(=O)NCc2c(C)cc(C)[nH]c2=O)cc2c(cnn2C)c1N(CC)C1CCC(N2CCN(C)CC2)CC1 (stereo not shown) [P-30] | 46 |  | 201 |  |
| CCN(c1c(C)c(C(=O)NCc2c(C)cc(C)[nH]c2=O)cc2c1cnn2C)C1CCC(N2CC(F)(F)C2)CC1 (stereo not shown) [P-31] | 15 |  | 130 |  |
| CCN(c1c(C)c(C(=O)NCc2c(C)cc(C)[nH]c2=O)cc2c1cnn2C)C1CCC(N2CCCCC2)CC1 (stereo not shown) [P-32] | 12 |  | 59 |  |
| CCN(c1c(C)c(C(=O)NCc2c(C)cc(C)[nH]c2=O)cc2c1cnn2C)C1CCC(N(C)CCN(C)C)CC1 (stereo not shown) [P-34] | 26 |  | 196 |  |
| CCc1c(C(=O)NCc2c(C)cc(C)[nH]c2=O)cc2c(cnn2C)c1N(CC)C1CCC(N2CC(OCC(F)(F)F)C2)CC1 (stereo not shown) [P-36] | 13 |  | 3 |  |
| CCN(c1c(C)c(C(=O)NCc2c(C)cc(C)[nH]c2=O)cc2c1cnn2C)C1CCC(N2CC(OCC(F)(F)F)C2)CC1 (stereo not shown) [P-37] | 12 |  | 297 |  |
| CCOC1CN(C2CCC(N(CC)c3c(CC)c(C(=O)NCc4c(C)cc(C)[nH]c4=O)cc4c3cnn4C)CC2)C1 (stereo not shown) [P-39] | 7 |  | 5 |  |
| CCN(c1c(C)c(C(=O)NCc2c(C)cc(C)[nH]c2=O)cc2c1c(F)nn2C)C1CCOCC1 [P-41] | 425 |  | 2000 | greatly reduced |
| CCN(c1ccc(CN(C)C)cc1)c1c(C)c(C(=O)NCc2c(C)cc(C)[nH]c2=O)cc2c1cnn2C [P-43] | 33 |  | 123 |  |
| CCN(c1c(C)c(C(=O)NCc2c(C)cc(C)[nH]c2=O)cc2c1cnn2C)C1CCC(N(C)CC(F)(F)F)CC1 (stereo not shown) [P-44, N-((4,6-dimethyl-2-oxo-1,2-dihydropyridin-3-yl)methyl)-4-(ethyl(4-(methyl(2,2,2-trifluoroethyl)amino)cyclohexyl)amino)-1,5-dimethyl-1H-indazole-6-carboxamide] | 60 |  | 300 |  |
| CCc1c(C(=O)NCc2c(C)cc(C)[nH]c2=O)cc2c(cnn2C)c1N(CC)C1CCC(N2CC(O)C2)CC1 (stereo not shown) [P-47, N-((4,6-dimethyl-2-oxo-1,2-dihydropyridin-3-yl)methyl)-5-ethyl-4-(ethyl(4-(3-hydroxyazetidin-1-yl)cyclohexyl)amino)-1-methyl-1H-indazole-6-carboxamide] | 7 |  | 178 |  |
| CCN(c1c(C)c(C(=O)NCc2c(C)cc(C)[nH]c2=O)cc2c1cnn2C)C1CCN(C2COC2)CC1 [P-48, N-((4,6-dimethyl-2-oxo-1,2-dihydropyridin-3-yl)methyl)-4-(ethyl(1-(oxetane-3-yl)piperidin-4-yl)amino)-1,5-dimethyl-1H-indazole-6-carboxamide] | 49 |  | 305 |  |
